Data on six molecules can be found in ChEMBL document CHEMBL2073955, “Proton/peptide cotransporter (PEPT 2) from human kidney: functional characterization and chromosomal localization” (Biochim Biophys Acta, 1995).

Type in all cases: functional, cell-based
Series [1] deals with T1, Solute carrier family 15 member 1 (Homo sapiens, UniProt P46059).
T1 sequence (P46059 whole entry): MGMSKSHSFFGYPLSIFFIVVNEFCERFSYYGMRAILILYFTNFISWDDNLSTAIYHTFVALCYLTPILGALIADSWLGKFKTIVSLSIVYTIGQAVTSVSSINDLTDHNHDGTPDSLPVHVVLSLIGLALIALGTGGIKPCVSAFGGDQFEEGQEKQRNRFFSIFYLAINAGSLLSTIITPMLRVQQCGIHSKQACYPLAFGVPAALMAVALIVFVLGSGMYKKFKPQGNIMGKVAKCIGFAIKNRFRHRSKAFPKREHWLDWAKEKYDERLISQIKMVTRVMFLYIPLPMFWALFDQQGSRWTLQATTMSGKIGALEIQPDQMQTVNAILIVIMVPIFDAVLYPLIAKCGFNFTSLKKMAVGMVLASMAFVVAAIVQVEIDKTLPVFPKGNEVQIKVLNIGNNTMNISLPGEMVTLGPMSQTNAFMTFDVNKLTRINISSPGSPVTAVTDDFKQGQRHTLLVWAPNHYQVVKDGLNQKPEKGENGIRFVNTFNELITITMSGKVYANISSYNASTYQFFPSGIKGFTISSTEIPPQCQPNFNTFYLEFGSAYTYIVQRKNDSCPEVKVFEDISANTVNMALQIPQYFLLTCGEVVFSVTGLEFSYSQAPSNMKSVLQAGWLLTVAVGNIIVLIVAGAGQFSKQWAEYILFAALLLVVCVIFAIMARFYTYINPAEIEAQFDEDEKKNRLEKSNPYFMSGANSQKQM
The experiment in a line: TP_TRANSPORTER: inhibition of Gly-Sar uptake in PEPT1-expressing HeLa cells.

For series [2], the target named is T2, Solute carrier family 15 member 2 (Homo sapiens, UniProt Q16348).
T2 sequence (Q16348 whole entry): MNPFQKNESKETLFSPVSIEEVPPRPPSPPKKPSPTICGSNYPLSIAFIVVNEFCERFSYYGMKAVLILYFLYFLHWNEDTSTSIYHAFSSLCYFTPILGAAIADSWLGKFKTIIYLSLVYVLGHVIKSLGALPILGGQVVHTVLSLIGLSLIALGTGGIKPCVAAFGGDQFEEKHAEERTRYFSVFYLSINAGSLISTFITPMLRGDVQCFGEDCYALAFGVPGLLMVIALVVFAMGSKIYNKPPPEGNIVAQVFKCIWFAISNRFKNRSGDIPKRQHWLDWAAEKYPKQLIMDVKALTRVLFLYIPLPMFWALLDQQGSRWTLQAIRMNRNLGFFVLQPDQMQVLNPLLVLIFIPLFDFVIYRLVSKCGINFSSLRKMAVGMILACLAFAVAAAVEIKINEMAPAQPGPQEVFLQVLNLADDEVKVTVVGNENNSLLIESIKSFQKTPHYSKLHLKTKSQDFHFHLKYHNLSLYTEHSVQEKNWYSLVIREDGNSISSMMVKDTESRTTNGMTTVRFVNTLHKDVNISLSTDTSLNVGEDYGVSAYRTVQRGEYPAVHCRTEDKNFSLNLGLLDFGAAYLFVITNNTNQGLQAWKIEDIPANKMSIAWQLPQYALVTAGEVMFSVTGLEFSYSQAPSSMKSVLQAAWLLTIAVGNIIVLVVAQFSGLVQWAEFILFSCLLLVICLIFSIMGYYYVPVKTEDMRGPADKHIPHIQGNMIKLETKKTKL
The series can be described thus: TP_TRANSPORTER: inhibition of Gly-Sar uptake in PEPT2-expressing HeLa cells.

Substrate in series [3]: CN(CC(=O)O)C(=O)CN
The series can be described thus: TP_TRANSPORTER: uptake in PEPT2-expressing HeLa cells.

Where a SMILES comes first, the peptide text is derived from it.

As for `C[C@H](N)C(=O)N[C@@H](CCCCN)C(=O)O` (H-Ala-Lys-OH), the Ki in series [1] was determined as 117 µM; in series [2], 11 µM.
The like results for `C[C@H](NC(=O)[C@@H](N)CCCCN)C(=O)O` (H-Lys-Ala-OH) were, in that order, 419 µM and 23 µM.
Regarding `C[C@H](N)C(=O)N[C@@H](C)C(=O)O` (H-Ala-Ala-OH), the figures for the inhibition constant (Ki) in series [1] and in series [2] were 78 µM and 6 µM, respectively.
As to `NCCCC[C@H](NC(=O)[C@@H](N)CC(=O)O)C(=O)O` (H-Asp-Lys-OH), the Ki is 108 µM in series [1] and 8 µM in series [2].
The matching figures for `C[C@H](N)C(=O)N[C@@H](CC(=O)O)C(=O)O` (H-Ala-Asp-OH): 78 µM and 18 µM.

B1: Solute carrier family 15 member 2 (Homo sapiens), Q16348 (protein)
chain: T2 sequence (Q16348 whole entry)
Consider B1, for which the Km in series [3] came out at 74 µM.
